Structures can show the parent of a compound that is named as a salt.
target: BRD4(BD1) (Homo sapiens (Human), UniProt O60885); test: In vitro enzyme inhibition assay (BRD4 AlphaScreen); assay type: binding; details: class symbols A/B/C
Method: His-tagged BRD4 was cloned, expressed and purified to homogeneity. […] BRD4 binding and inhibition was assessed by monitoring the interaction of biotinylated H4-tetraacetyl peptide (AnaSpec, H4K5/8/12/16(Ac), biotin-labeled) with the target using the AlphaScreen technology (Life Technologies). […] After 20 min incubation at room temp, Alpha streptavidin donor beads and Nickel Chelate acceptor beads were added to a final concentration of 5 μg/mL.
The ability of the compounds disclosed herein to inhibit BRD4 activity was quantified and the respective IC50 value was determined.

First: Cc1cc(-c2cccc(NS(C)(=O)=O)c2)cn(C)c1=O [Example 96, N-[3-(1,5-dimethyl-6-oxopyridin-3-yl)phenyl]methanesulfonamide]
Second: CCS(=O)(=O)c1cccc(-c2cc(N)c(=O)n(C)c2)c1 [Example 108, 3-amino-5-(3-ethylsulfonylphenyl)-1-methylpyridin-2-one]
The IC50 of the first is lower: 500 to 5000 nM for the first, > 5000 nM for the second.

First: Cn1cc(-c2cc(N)cc(F)c2)c2ccccc2c1=O [Example 25, 4-(3-amino-5-fluorophenyl)-2-methylisoquinolin-1-one hydrochloride]
Second: Cn1cc(-c2ccccc2F)c2ccccc2c1=O [Example 3, 4-(2-fluorophenyl)-2-methylisoquinolin-1-one]
The IC50 of the first is lower: 500 to 5000 nM for the first, > 5000 nM for the second. The first is the more potent here.

Compared with `Cn1cc(-c2ccc3c(c2)NCCO3)c2ccccc2c1=O` [Example 19, 4-(3,4-dihydro-2H-1,4-benzoxazin-6-yl)-2-methylisoquinolin-1-one], `CCS(=O)(=O)c1ccc(O)c(-c2cn(C)c(=O)c3ccc(-c4cnn(C)c4)cc23)c1` [Example 80, 4-(5-ethylsulfonyl-2-hydroxyphenyl)-2-methyl-6-(1-methylpyrazol-4-yl) isoquinolin-1-one] is lower in IC50: 500 to 5000 nM for the first, < 500 nM for the second. The second is the more potent here.

same assay, conditions: in vitro enzyme inhibition assay

`CCS(=O)(=O)Nc1cc(OCc2ccccc2)cc(-c2cc(C)c(=O)n(C)c2)c1` [Example 395, N-[3-(1,5-dimethyl-6-oxopyridin-3-yl)-5-phenylmethoxyphenyl]ethanesulfonamide] and `Cc1cc(-c2cc(OCc3cccnc3)cc(S(C)(=O)=O)c2)cn(C)c1=O` [Example 338, 1,3-dimethyl-5-[3-methylsulfonyl-5-(pyridin-3-ylmethoxy)phenyl]pyridin-2-one] cannot be ordered by IC50: < 500 nM for the first, < 500 nM for the second.

First: Cn1cc(-c2cc(CS(C)(=O)=O)ccc2OCC(F)(F)F)c2ocnc2c1=O [Example 239, 5-methyl-7-[5-(methylsulfonylmethyl)-2-(2,2,2-trifluoroethoxy)phenyl]-[1,3]oxazolo[4,5-c]pyridin-4-one]
Second: CCS(=O)(=O)Cc1ccc(OCC(F)(F)F)c(-c2cc(C)c(=O)n(CCO)c2)c1 [Example 407, 5-[5-(ethylsulfonylmethyl)-2-(2,2,2-trifluoroethoxy)phenyl]-1-(2-hydroxyethyl)-3-methylpyridin-2-one]
The IC50 of the first is lower: < 500 nM for the first, 500 to 5000 nM for the second. The first is the more potent here.

`Cn1cc(-c2nc(S(C)(=O)=O)ncc2OCC2CC2)c2ccccc2c1=O` [Example 311, 4-[5-(cyclopropylmethoxy)-2-methylsulfonylpyrimidin-4-yl]-2-methylisoquinolin-1-one] and `Cn1cc(-c2cc(OCC3CC3)cc(S(C)(=O)=O)c2)c2ccccc2c1=O` [Example 345, 4-[3-(cyclopropylmethoxy)-5-methylsulfonylphenyl]-2-methylisoquinolin-1-one] cannot be ordered by IC50: < 500 nM for the first, < 500 nM for the second.

First: CNc1cc(-c2cc(NS(C)(=O)=O)ccc2Oc2ccc(F)cc2F)cn(C)c1=O [Example 412, N-[4-(2,4-difluorophenoxy)-3-[1-methyl-5-(methylamino)-6-oxopyridin-3-yl]phenyl]methanesulfonamide]
Second: Cn1cc(-c2cc(NS(C)(=O)=O)ccc2Oc2ccc(F)cc2F)cc(N2CCCC2)c1=O [Example 281, N-[4-(2,4-difluorophenoxy)-3-(1-methyl-6-oxo-5-pyrrolidin-1-ylpyridin-3-yl)phenyl]methanesulfonamide]
The IC50 of the first is lower: < 500 nM for the first, 500 to 5000 nM for the second. The first is the more potent here.

First: Cc1cc(-c2cc(S(C)(=O)=O)cc3c2OCCO3)cn(C)c1=O [Example 489, 1,3-dimethyl-5-(7-methylsulfonyl-2,3-dihydro-1,4-benzodioxin-5-yl)pyridin-2-one]
Second: Cc1cc(-c2cc(S(C)(=O)=O)ccc2O[C@H]2CC[C@@H](N)CC2)cn(C)c1=O [Example 403, 5-[2-(cis-4-aminocyclohexyl)oxy-5-methylsulfonylphenyl]-1,3-dimethylpyridin-2-one]
The IC50 of the first is higher: 500 to 5000 nM for the first, < 500 nM for the second. The second is the more potent here.

First: CCOc1ccc(S(=O)(=O)CC)cc1-c1cn(C)c(=O)cc1C [Example 458, 5-(2-ethoxy-5-ethylsulfonylphenyl)-1,4-dimethylpyridin-2-one]
Second: CCS(=O)(=O)c1ccc(NCC2CC2)c(-c2cn(C)c(=O)cc2C)c1 [Example 423, 5-[2-(cyclopropylmethylamino)-5-ethylsulfonylphenyl]-1,4-dimethylpyridin-2-one]
The IC50 of the first is lower: < 500 nM for the first, 500 to 5000 nM for the second. The first is the more potent here.

`COc1ccc2c(=O)n(C)cc(-c3cc(S(=O)(=O)C(C)C)ccc3OCC3CC3)c2c1` [Example 393, 4-[2-(cyclopropylmethoxy)-5-propan-2-ylsulfonylphenyl]-6-methoxy-2-methylisoquinolin-1-one] and `CCS(=O)(=O)c1ccc(OCC2CC2)c(-c2cc(NC)c(=O)n(C)c2)c1` [Example 409, 5-[2-(cyclopropylmethoxy)-5-ethylsulfonylphenyl]-1-methyl-3-(methylamino)pyridin-2-one] cannot be ordered by IC50: < 500 nM for the first, < 500 nM for the second.

`Cn1cc(-c2cc(S(C)(=O)=O)ccc2CCC2CC2)c2ccccc2c1=O` [Example 319, 4-[2-(2-cyclopropylethyl)-5-methylsulfonylphenyl]-2-methylisoquinolin-1-one] and `Cn1cc(-c2cc(OCc3ccccc3)cc(S(C)(=O)=O)c2)c2ccccc2c1=O` [Example 344, 2-methyl-4-(3-methylsulfonyl-5-phenylmethoxyphenyl)isoquinolin-1-one] cannot be ordered by IC50: < 500 nM for the first, < 500 nM for the second.

First: Cc1cc(-c2nc(S(C)(=O)=O)ncc2Oc2ccc(F)cc2F)cn(C(C)C)c1=O [Example 510, 5-[5-(2,4-difluorophenoxy)-2-methylsulfonylpyrimidin-4-yl]-3-methyl-1-propan-2-ylpyridin-2-one]
Second: CCCCn1cc(-c2nc(NS(C)(=O)=O)ncc2Oc2ccc(F)cc2F)cc(C)c1=O [Example 296, N-[4-(1-butyl-5-methyl-6-oxopyridin-3-yl)-5-(2,4-difluorophenoxy)pyrimidin-2-yl]methanesulfonamide]
The IC50 of the first is higher: 500 to 5000 nM for the first, < 500 nM for the second. The second is the more potent here.

`CCS(=O)(=O)c1ccc(Oc2ccc(F)cc2F)c(-c2cn(C)c(=O)c3cncnc23)c1` [Example 234, 8-[2-(2,4-difluorophenoxy)-5-ethylsulfonylphenyl]-6-methylpyrido[4,3-d]pyrimidin-5-one] and `CCS(=O)(=O)Nc1cc(-c2cc(C)c(=O)n(C)c2)nc(Oc2ccc(F)cc2F)n1` [Example 347, N-[2-(2,4-difluorophenoxy)-6-(1,5-dimethyl-6-oxopyridin-3-yl)pyrimidin-4-yl]ethanesulfonamide] fall in the same range of IC50: 500 to 5000 nM for the first, 500 to 5000 nM for the second.

`CCc1cnc(NS(=O)(=O)CC)nc1-c1cn(C)c(=O)c2ccccc12` [Example 300, N-[5-ethyl-4-(2-methyl-1-oxoisoquinolin-4-yl)pyrimidin-2-yl]ethanesulfonamide] and `CCOc1ccc(S(C)(=O)=O)cc1-c1cn(C)c(=O)c2c1CCCC2` [Example 216, 4-(2-ethoxy-5-methylsulfonylphenyl)-2-methyl-5,6,7,8-tetrahydroisoquinolin-1-one] cannot be ordered by IC50: < 500 nM for the first, < 500 nM for the second.

First: Cc1cc(-c2cc(OCc3cccc(C#N)c3)cc(S(C)(=O)=O)c2)cn(C)c1=O [Example 339, 3-[[3-(1,5-dimethyl-6-oxopyridin-3-yl)-5-methylsulfonylphenoxy]methyl]benzonitrile]
Second: Cc1cc(=O)n(C)cc1-c1cc(S(C)(=O)=O)ccc1NCC1CC1 [Example 422, 5-[2-(cyclopropylmethylamino)-5-methylsulfonylphenyl]-1,4-dimethylpyridin-2-one]
The IC50 of the first is lower: < 500 nM for the first, 500 to 5000 nM for the second. The first is the more potent here.
